# Experimental data: paper PMC7248923, “A New Oleanane Type Saponin from the Aerial Parts of Nigella sativa with Anti-Oxidant and Anti-Diabetic Potential” (Molecules, 2020)
# Experiments:
# [1] = DPPH radical scavenging assay; conditions: mean of three determinations ± SD; Nd = not detected; 30 min at 37 °C, 517 nm
# Experimental: The DPPH activity of the isolated compounds and extracts were evaluated as described previously. Twenty μ L of samples having different concentrations of the extract (100, 500, 250, and 125 µg/mL) and isolated compounds (100, 75, 50, and 25 μ M) keeping the total volume of solution at 180 μL (0.1 mM) solution, was added in 96 well plates and incubated for 30 min at 37 °C. The observation was measured at 517nm. Each observation was done in triplicate. Ascorbic acid and Trolox were used as positive controls, while methanol was used as a negative control. Inhibition % was calculated. Data were presented as the mean ± S.D.
# [2] = ABTS radical scavenging assay; conditions: mean of three determinations ± SD; Nd = not detected; 732 nm
# Experimental: ABTS inhibition of the isolated compounds and extracts were evaluated as described previously. Stock solution was prepared by mixing an equal volume of 7.4 mM of ABTS and 2.6 mM of potassium persulfate and kept for 24 hours before diluting with methanol. Later the solution was diluted with methanol till the absorbance at 732 nm came within the range of 0.8–1.2. To 50 µL of sample solutions of different concentration (250, 125, 100, 50 μM ) 950 μL of ABTS* was added. Absorbance was measured at 732 nm by a spectrophotometer. Ascorbic acid and Trolox, and methanol were used as a positive and negative controls, respectively. All observations were done in triplicate. Percentage inhibition was calculated from the observations. Data were presented as mean ± S.D.
# human recombinant PTP1B = molecular target: T1, human recombinant PTP1B (Homo sapiens, UniProt P18031); assay: PTP1B inhibitory assay (pNPP substrate); assay type: biochemical; conditions: mean of three determinations ± SD, Nd = not detected, pH 6, 37 °C
# T1 construct: purchased Sigma-Aldrich
# T1 sequence (P18031 1-435): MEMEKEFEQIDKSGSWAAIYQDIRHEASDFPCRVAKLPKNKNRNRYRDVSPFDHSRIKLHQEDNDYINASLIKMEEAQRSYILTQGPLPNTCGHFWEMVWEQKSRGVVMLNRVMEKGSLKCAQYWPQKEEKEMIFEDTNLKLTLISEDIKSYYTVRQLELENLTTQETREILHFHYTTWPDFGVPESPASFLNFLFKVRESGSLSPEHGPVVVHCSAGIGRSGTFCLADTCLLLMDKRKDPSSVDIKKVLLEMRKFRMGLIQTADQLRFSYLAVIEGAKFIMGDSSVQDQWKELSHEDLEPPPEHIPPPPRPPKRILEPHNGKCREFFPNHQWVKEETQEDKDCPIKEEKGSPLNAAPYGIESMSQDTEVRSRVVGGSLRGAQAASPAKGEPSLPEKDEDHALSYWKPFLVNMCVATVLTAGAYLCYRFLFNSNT
# Experimental: The inhibitory activity of the isolated compounds against human recombinant PTP1B was evaluated using p-nitrophenyl phosphate (pNPP) as a substrate. Firstly, 2 mM pNPP and PTP1B were mixed with 50 mM citrate buffer of pH 6 and 0.1 mM NaCl, 1 mM EDTA, and 1 mM DTT with or without sample keeping the final volume of the solution at 110 μL and placing them in a 96 wells plate. […] The plate was first pre-incubated for 10 min at 37 °C, and then 50 μL of pNPP in buffer was added. The plate was again incubated for 30 min at 37 °C. After that, 10 μL of 10M NaOH was added dropwise to stop the reaction. […] The inhibition percentage was calculated with the formula [( Ac−As/Ac )] × 100%, where Ac is the absorbance of control while As is the absorbance of the sample. […] Data were presented as mean ± S.D [35].
SMILES,IC50 [1] [µM],IC50 [2] [µM],IC50 (human recombinant PTP1B) [µM]
"CC1OC(OC2C(OC3CCC4(C)C(CCC5(C)C4CC=C4C6CC(C)(C)CCC6(C(=O)O)CCC45C)C3(C)CO)OCC(O)C2O)C(O)C(O)C1O [Compound 12, 3-O-[α-L-rhamnopyranosyl-(1→2)-α-L-arabinopyranpsyl]hederagenin]",,,91.3 ± 2.5
"O=c1c(OC2OC(CO)C(O)C(O)C2OC2OC(CO)C(O)C(O)C2OC2OC(CO)C(O)C(O)C2O)c(-c2ccc(O)c(O)c2)oc2cc(O)cc(O)c12 (stereo not shown) [Compound 8, quercetin sphorotrioside]",35.5 ± 0.5,98.8 ± 0.5,
"O=C1O[C@H]([C@@H](O)CO)C(O)=C1O [Ascorbic acid, reference compound]",51.7 ± 0.1,82.9 ± 2,

# Further lines, results first:
IC50 [1] [µM],IC50 [2] [µM],IC50 (human recombinant PTP1B) [µM],SMILES
198 ± 2.7,247 ± 2.7,,"O=c1c(OC2OC(CO)C(O)C(O)C2O)c(-c2ccc(O)cc2)oc2cc(OC3OC(CO)C(O)C(O)C3O)cc(O)c12 (stereo not shown) [Compound 9, kaempferol-3,7-diglucoside]"
59.4 ± 0.9,96.2 ± 1.5,,"Cc1c(C)c2c(c(C)c1O)CCC(C)(C(=O)O)O2 (stereo not shown) [Trolox, reference compound]"
39.6 ± 0.5,129 ± 0.5,,"C[C@@H]1O[C@@H](OC[C@H]2O[C@@H](Oc3c(-c4ccc(O)c(O)c4)oc4cc(O)cc(O)c4c3=O)[C@H](O)[C@@H](O)[C@@H]2O)[C@H](O)[C@H](O)[C@H]1O [Compound 11, rutin]"
71 ± 0.5,139.2 ± 0.5,,"COc1ccc2c(c1O)-c1c(O)c(OC)cc3c1[C@H](C2)[N+](C)(C)CC3 [Compound 5, magnoflorine]"
